Results on 21 compounds are retold here after PubChem BioAssay (NCI).

In one test the test system is RXF-631 renal. In words: inhibition of tumour cell growth, NCI panel, 48 h.
The next test deals with HOP-18 NSCLC. In words: inhibition of tumour cell growth, NCI panel, 48 h.

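All cell lines were grown in 96-well plates and treated with compound for 48 hours. At the TGI there is no net growth.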

`O=C1c2ccccc2C(=O)N1C/C=N/NS(=O)(=O)c1ccc(Cl)cc1` came in with a TGI in the test with RXF-631 renal greater than 100 µM.
`CCCCC/C=C1\CCC(CN2CCOCC2)C1=O` (centres undefined): the TGI came out at 27.5 µM in the test with HOP-18 NSCLC and 44.9 µM with RXF-631 renal.
In the test on HOP-18 NSCLC, `CC(=O)C1CC2(c3ccccc3)C(=O)c3ccccc3N2O1` (centres undefined) came in with a TGI greater than 100 µM.
In the test with HOP-18 NSCLC, `O=C(Cc1ccccc1)NN1C(=O)C(Cl)C1c1cc(Br)cc(Br)c1O` (centres undefined) returned a TGI of 31.4 µM.
In the case of `CCCC/C=C1\CCC(CN2CCOCC2)C1=O` (centres undefined), the TGI turned out to be 2.05 µM in the test on HOP-18 NSCLC and 29.2 µM in the test on RXF-631 renal.
As for `Cc1cc(Cl)ccc1N1C(=O)C(=O)C(c2nc3ccccc3s2)/C(=N\NC(=O)c2ccccc2O)C1=O` (centres undefined), the TGI in the test with HOP-18 NSCLC and in the test with RXF-631 renal was greater than 100 µM throughout.
In turn, `CN(C)CC1CCC(CN(C)C)C1=NO` (centres undefined) had a TGI with HOP-18 NSCLC greater than 100 µM.
Turning to `CCC1N2CCCCC2[C@@H]2c3[nH]c4ccccc4c3CCN12` (some centres undefined), the TGI in the test on HOP-18 NSCLC and in the test on RXF-631 renal was greater than 100 µM in each case.
Regarding `CSc1ccc2c(cc1=O)C(NC(=O)c1cc(O)c(OC(=O)O)c(O)c1)CCc1cc(O)c(O)c(O)c1-2` (centres undefined), in the test on HOP-18 NSCLC, the TGI was greater than 90 µM.
Regarding `CCC(=O)NCC1(c2c[nH]c3ccccc23)SCCS1`, the TGI with HOP-18 NSCLC was greater than 100 µM.
For `N#CC(C(=N/NC(N)=S)/C(=N\NC(N)=S)C(C#N)c1ccccc1)c1ccccc1` (centres undefined), the TGI in the test on HOP-18 NSCLC and in the test with RXF-631 renal was greater than 10 µM each time.
Regarding `CCOC(=O)NC(=O)c1cn(-c2ccc(CCOC(=O)CCCCCCCCC(=O)OCCc3ccc(-n4cc(C(=O)NC(=O)OCC)c(=O)[nH]c4=O)cc3)cc2)c(=O)[nH]c1=O`, the TGI in the test with HOP-18 NSCLC and in the test on RXF-631 renal was greater than 100 µM each time.
Consider `COC(=O)C(=O)C(C(=O)C(=O)Nc1ccc([N+](=O)[O-])cc1C#N)c1nc2ccc([N+](=O)[O-])cc2[nH]c1=O` (centres undefined), for which the TGI in the test with HOP-18 NSCLC is greater than 100 µM.
With `CCCN(CCC)C(=O)Cc1c2n(c3ccccc13)CCCc1ccccc1-2`, the TGI with HOP-18 NSCLC was 30.3 µM.
As for `O=C1c2ccccc2N2OC3C4CCC(C4)C3C12c1ccccc1` (centres undefined), the TGI in the test with HOP-18 NSCLC is greater than 100 µM.
The compound `COc1ccc(OC)c2c1C(=O)C(Cl)=C(Cl)C2=O` showed a TGI in the test with HOP-18 NSCLC of 12.4 µM.
Regarding `COc1cc([C@@H]2c3cc4c(cc3[C@@H](NC(=O)c3ccc(C(C)=O)cc3)C3COC(=O)[C@@H]32)OCO4)cc(OC)c1O` (some centres undefined), the TGI was greater than 100 µM in the test with HOP-18 NSCLC and 10.6 µM in the test with RXF-631 renal.
In the case of `O=c1[nH]nc2c3n[nH]c(=O)n3c3ccccc3n12`, the TGI with RXF-631 renal is greater than 100 µM.
Consider `CC1(Br)C(=O)NC(=O)N([C@H]2C[C@H](O)[C@@H](CO)O2)C1N=[N+]=[N-]` (some centres undefined), for which the TGI in the test on HOP-18 NSCLC and in the test with RXF-631 renal was greater than 100 µM in each case.
For the compound `c1ccc(SCCP(CCP(c2ccccc2)c2ccccc2)c2ccccc2)cc1` (centres undefined), in the test on HOP-18 NSCLC, the TGI was determined as 14 µM.
Compound `CC1=CC(=O)c2cccc(O)c2C1=O` showed a TGI in the test with HOP-18 NSCLC of 3.07 µM.
